Data published in patent publication US10597388B2, “Pyridazinone herbicides” (FMC CORPORATION, priority 2014, dated 2020).

Columns and labels:
Assay type in all cases: in vivo
[1] = tested on: barnyardgrass (Echinochloa crus-galli); assay: Test A greenhouse herbicide test, pre- and postemergence
Method in brief: (§1)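 Seeds in loam–sand blend received a preemergence directed soil spray; plants at 2–10 cm, one- to two-leaf stage, received postemergence sprays. Compounds in a non-phytotoxic solvent with surfactant. After about 10 d in a greenhouse, injury rated visually versus untreated controls on a 0–100 scale (100 = complete control).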

[2] = tested on: corn (Zea mays); assay: as above; conditions: Postemergence; for Corn plant response rating: 0 to 100 scale, 0 is no effect, 100 is complete control
Method in brief: as §1

[3] = tested on: foxtail, giant (giant foxtail, Setaria faberii); assay: as above
Method in brief: as §1

[4] = tested on: kochia (Kochia scoparia); assay: as above
Method in brief: as §1

[5] = tested on: pigweed (Amaranthus retroflexus); assay: as above
Method in brief: as §1

[6] = tested on: ragweed (common ragweed, Ambrosia elatior); assay: as above
Method in brief: as §1

[7] = tested on: ryegrass, Italian (Italian ryegrass, Lolium multiflorum); assay: as above
Method in brief: as §1

[8] = tested on: wheat (Triticum aestivum); assay: as above; conditions: Postemergence; for Wheat plant response rating: 0 to 100 scale, 0 is no effect, 100 is complete control
Method in brief: as §1

[9] = tested on: blackgrass (Alopecurus myosuroides); assay: Test A greenhouse herbicide test, postemergence; conditions: for Blackgrass plant response rating: 0 to 100 scale, 0 is no effect, 100 is complete control
Method in brief: (§2)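 Pot-grown plants (loam soil/sand blend), 2–10 cm tall at the one- to two-leaf stage, received postemergence sprays of formulated test chemical. After about 10 d in the greenhouse, injury was rated visually against untreated controls on a 0 (no effect) to 100 (complete control) scale.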

[10] = tested on: galium (catchweed bedstraw, Galium aparine); assay: Test A greenhouse herbicide test, postemergence; conditions: for Galium plant response rating: 0 to 100 scale, 0 is no effect, 100 is complete control
Method in brief: as §2

[11] = tested on: kochia (Kochia scoparia); assay: Test C greenhouse herbicide test, postemergence
Method in brief: (§3)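 Greenhouse postemergence spray on plants 2–18 cm tall; response judged visually after 13–15 d relative to untreated controls using a 0 (none) to 100 (full control) scale.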

[12] = tested on: oat, wild (wild oat, Avena fatua); assay: Test C greenhouse herbicide test, postemergence
Method in brief: as §3

[13] = Postemergence, 125 g ai/ha, 0 to 100 scale where 0 is no effect and 100 is complete control
[14] = Postemergence, 500 g ai/ha, visual rating after approx. 10 d, 0 to 100 scale (0 no effect, 100 complete control)
[15] = Preemergence, 125 g ai/ha, 0 to 100 scale where 0 is no effect and 100 is complete control
[16] = Preemergence, 500 g ai/ha, 0 to 100 scale where 0 is no effect and 100 is complete control
[17] = 125 g ai/ha, 0 to 100 scale where 0 is no effect and 100 is complete control
[18] = 500 g ai/ha, visual rating after approx. 10 d, 0 to 100 scale (0 no effect, 100 complete control)
[19] = Postemergence, 31 g ai/ha, scale 0 to 100 (0 no effect, 100 complete control)
[20] = Postemergence, 125 g ai/ha, scale 0 to 100, 0 is no effect, 100 is complete control
[21] = Postemergence, 250 g ai/ha, scale 0 to 100, 0 no effect, 100 complete control, 13 to 15 d
[22] = Postemergence, 125 g ai/ha, visual rating after approx. 10 d, 0 to 100 scale (0 no effect, 100 complete control)
[23] = Postemergence, 500 g ai/ha, 0 to 100 scale, 0 is no effect, 100 is complete control
[24] = Preemergence, 500 g ai/ha, 0 to 100 scale, 0 no effect, 100 complete control
[25] = 125 g ai/ha, visual rating after approx. 10 d, 0 to 100 scale (0 no effect, 100 complete control)
[26] = Postemergence, 31 g ai/ha, 0 to 100 scale (0 no effect, 100 complete control)
[27] = postemergence, 62 g ai/ha, scale 0 to 100, 0 no effect, 100 complete control

Cc1sc2ccc(Cl)cc2c1-c1c(OS(C)(=O)=O)c(Cl)nn(C)c1=O [Compound 114]
60: Plant response rating, Kochia [4, 14] | Plant response rating, Blackgrass [9, 18]
85: Plant response rating, Oat, Wild [12, 21]
70: Plant response rating, Foxtail, Giant [3, 13] | Plant response rating, Ragweed [6, 13]
100: Plant response rating, Kochia [4, 16] | Pigweed plant response rating [5, 15] | Plant response rating, Pigweed [5, 16] | Plant response rating, Galium [10, 18]
30: Barnyardgrass plant response rating [1, 15] | Plant response rating, Corn [2, 18] | Plant response rating, Kochia [4, 13] | Kochia plant response rating [4, 15] | Plant response rating, Kochia [11, 19]
65: Plant response rating, Oat, Wild [12, 20]
0: Plant response rating, Corn [2, 17]
80: Plant response rating, Barnyardgrass [1, 16] | Plant response rating, Ragweed [6, 14] | Ragweed plant response rating [6, 15] | Ryegrass, Italian plant response rating [7, 15]
40: Foxtail, Giant plant response rating [3, 15] | Plant response rating, Wheat [8, 18] | Plant response rating, Oat, Wild [12, 19]
20: Plant response rating, Barnyardgrass [1, 13] | Plant response rating, Wheat [8, 17] | Plant response rating, Blackgrass [9, 17]
95: Plant response rating, Kochia [11, 21]
90: Plant response rating, Barnyardgrass [1, 14] | Plant response rating, Foxtail, Giant [3, 14] | Plant response rating, Foxtail, Giant [3, 16] | Plant response rating, Pigweed [5, 13] | Plant response rating, Pigweed [5, 14] | Plant response rating, Ragweed [6, 16] | Plant response rating, Ryegrass, Italian [7, 13] | Plant response rating, Ryegrass, Italian [7, 14] | Plant response rating, Ryegrass, Italian [7, 16] | Plant response rating, Galium [10, 17] | Plant response rating, Kochia [11, 20]

CCC(=O)Oc1c(C)nn(C)c(=O)c1-c1c(C)sc2c(C)cc(C)cc12 [Compound 28]
20: Corn plant response rating ([2]; 500 g ai/ha)
95: Plant response rating, Kochia [11, 20] | Oat, Wild plant response rating [12, 26] | Oat, Wild plant response rating [12, 27]
100: Foxtail, Giant plant response rating [3, 15] | Plant response rating, Foxtail, Giant [3, 24] | Pigweed plant response rating [5, 15] | Plant response rating, Pigweed [5, 24] | Ragweed plant response rating [6, 23] | Ryegrass, Italian plant response rating [7, 23] | Ryegrass, Italian plant response rating [7, 15] | Plant response rating, Ryegrass, Italian [7, 24] | Plant response rating, Galium [10, 25] | Galium plant response rating ([10]; 500 g ai/ha) | Plant response rating, Kochia [11, 21] | Plant response rating, Oat, Wild [12, 20] | Plant response rating, Oat, Wild [12, 21]
70: Plant response rating, Kochia [4, 22] | Kochia plant response rating [11, 26] | Kochia plant response rating [11, 27]
50: Kochia plant response rating [4, 15]
90: Barnyardgrass plant response rating [1, 23] | Barnyardgrass plant response rating [1, 15] | Plant response rating, Barnyardgrass [1, 24] | Plant response rating, Foxtail, Giant [3, 22] | Foxtail, Giant plant response rating [3, 23] | Kochia plant response rating [4, 23] | Plant response rating, Kochia [4, 24] | Plant response rating, Pigweed [5, 22] | Pigweed plant response rating [5, 23] | Ragweed plant response rating [6, 15] | Plant response rating, Ragweed [6, 24] | Plant response rating, Ryegrass, Italian [7, 13] | Plant response rating, Blackgrass [9, 25] | Blackgrass plant response rating ([9]; 500 g ai/ha)
0: Plant response rating, Corn [2, 25] | Plant response rating, Wheat [8, 17] | Wheat plant response rating ([8]; 500 g ai/ha)
80: Plant response rating, Barnyardgrass [1, 22] | Plant response rating, Ragweed [6, 22]

Cc1cc(C)c2sc(C)c(-c3c(OC(=O)OCCCl)c(C)nn(C)c3=O)c2c1 [Compound 85]
0: Plant response rating, Corn [2, 17] | Corn plant response rating ([2]; 500 g ai/ha) | Kochia plant response rating [4, 15] | Plant response rating, Wheat [8, 17] | Wheat plant response rating ([8]; 500 g ai/ha)
30: Plant response rating, Barnyardgrass [1, 13] | Plant response rating, Kochia [4, 13] | Plant response rating, Kochia [4, 16]
95: Plant response rating, Oat, Wild [12, 20]
60: Plant response rating, Kochia [11, 20]
100: Plant response rating, Barnyardgrass [1, 16] | Foxtail, Giant plant response rating [3, 15] | Plant response rating, Foxtail, Giant [3, 16] | Pigweed plant response rating [5, 23] | Pigweed plant response rating [5, 15] | Plant response rating, Pigweed [5, 16] | Ryegrass, Italian plant response rating [7, 15] | Plant response rating, Ryegrass, Italian [7, 16] | Galium plant response rating ([10]; 500 g ai/ha)
80: Barnyardgrass plant response rating [1, 23]
90: Plant response rating, Foxtail, Giant [3, 13] | Foxtail, Giant plant response rating [3, 23] | Plant response rating, Pigweed [5, 13] | Plant response rating, Ragweed [6, 13] | Ragweed plant response rating [6, 23] | Ragweed plant response rating [6, 15] | Plant response rating, Ragweed [6, 16] | Plant response rating, Ryegrass, Italian [7, 13] | Ryegrass, Italian plant response rating [7, 23] | Plant response rating, Blackgrass [9, 17] | Blackgrass plant response rating ([9]; 500 g ai/ha) | Plant response rating, Galium [10, 17] | Plant response rating, Oat, Wild [12, 21] | Oat, Wild plant response rating [12, 27]
70: Barnyardgrass plant response rating [1, 15] | Kochia plant response rating [4, 23] | Plant response rating, Kochia [11, 21] | Kochia plant response rating [11, 27]
